From the NIST ThermoML archive (doi:10.1016/j.jct.2006.01.012)

Experiment: xn = mol fraction of the nth substance listed
Conditions: Liquid; for viscosity: Capillary tube (Ostwald / Ubbelohde) method; for mass density: isochoric method

CCCCCCCC [octane] + CCCCCCC
Conditions	mass density [kg/m3]	viscosity [mPa·s]
373.19 K, 5000 kPa, x2 = 0.7906	–	0.217
373.19 K, 10000 kPa, x2 = 0.7906	–	0.23
373.51 K, 5000 kPa, x2 = 0.2808	–	0.241
373.51 K, 10000 kPa, x2 = 0.2808	–	0.255
373.97 K, 5000 kPa, x2 = 0.5427	–	0.227
373.97 K, 10000 kPa, x2 = 0.5427	–	0.24
374.79 K, 3256 kPa, x2 = 0.2808	634.7	–
374.79 K, 8081 kPa, x2 = 0.2808	641.5	–
374.79 K, 9316 kPa, x2 = 0.2808	643.1	–
380.43 K, 3110 kPa, x2 = 0.5427	623.5	–
380.43 K, 5712 kPa, x2 = 0.5427	628.4	–
380.43 K, 8743 kPa, x2 = 0.5427	633.1	–
380.43 K, 10230 kPa, x2 = 0.5427	635.1	–
382.99 K, 5000 kPa, x2 = 0.2808	–	0.223
382.99 K, 10000 kPa, x2 = 0.2808	–	0.237
383.18 K, 5000 kPa, x2 = 0.5427	–	0.212
383.18 K, 10000 kPa, x2 = 0.5427	–	0.224
384.55 K, 5000 kPa, x2 = 0.7906	–	0.198
384.55 K, 10000 kPa, x2 = 0.7906	–	0.211
386.91 K, 3743 kPa, x2 = 0.7906	612.4	–
386.91 K, 5902 kPa, x2 = 0.7906	616.6	–
386.91 K, 8793 kPa, x2 = 0.7906	621.6	–
386.91 K, 10710 kPa, x2 = 0.7906	624.7	–
393.49 K, 5000 kPa, x2 = 0.2808	–	0.206
393.49 K, 10000 kPa, x2 = 0.2808	–	0.22
394.51 K, 5000 kPa, x2 = 0.5427	–	0.195
394.51 K, 10000 kPa, x2 = 0.5427	–	0.206
395.52 K, 5000 kPa, x2 = 0.7906	–	0.183
395.52 K, 10000 kPa, x2 = 0.7906	–	0.195
401.28 K, 4100 kPa, x2 = 0.7906	601.1	–
401.28 K, 6833 kPa, x2 = 0.7906	606.2	–
401.28 K, 9204 kPa, x2 = 0.7906	610.3	–
401.28 K, 10510 kPa, x2 = 0.7906	612.5	–
401.4 K, 4751 kPa, x2 = 0.2808	614.2	–
401.4 K, 7120 kPa, x2 = 0.2808	618	–
401.4 K, 9310 kPa, x2 = 0.2808	621.7	–
403.23 K, 5000 kPa, x2 = 0.5427	–	0.183
403.23 K, 10000 kPa, x2 = 0.5427	–	0.193
407.72 K, 5000 kPa, x2 = 0.7906	–	0.167
407.72 K, 10000 kPa, x2 = 0.7906	–	0.18
409.59 K, 3334 kPa, x2 = 0.5427	598	–
409.59 K, 7257 kPa, x2 = 0.5427	606.1	–
409.59 K, 9316 kPa, x2 = 0.5427	609.6	–
413.6 K, 5000 kPa, x2 = 0.2808	–	0.178
413.6 K, 10000 kPa, x2 = 0.2808	–	0.191
415.96 K, 5000 kPa, x2 = 0.5427	–	0.167
415.96 K, 10000 kPa, x2 = 0.5427	–	0.177
423.23 K, 3334 kPa, x2 = 0.7906	578.1	–
423.23 K, 7433 kPa, x2 = 0.7906	587.6	–
423.23 K, 9708 kPa, x2 = 0.7906	592.4	–
424.45 K, 5000 kPa, x2 = 0.7906	–	0.149
424.45 K, 10000 kPa, x2 = 0.7906	–	0.16
424.48 K, 4903 kPa, x2 = 0.5427	588.7	–
424.48 K, 7108 kPa, x2 = 0.5427	592.8	–
424.48 K, 9298 kPa, x2 = 0.5427	597.1	–
424.55 K, 5000 kPa, x2 = 0.5427	–	0.158
424.55 K, 10000 kPa, x2 = 0.5427	–	0.167
429.34 K, 3511 kPa, x2 = 0.2808	585.6	–
429.34 K, 8237 kPa, x2 = 0.2808	595.9	–
429.34 K, 9630 kPa, x2 = 0.2808	598.7	–
432.62 K, 5000 kPa, x2 = 0.2808	–	0.156
432.62 K, 10000 kPa, x2 = 0.2808	–	0.168
433.62 K, 5000 kPa, x2 = 0.5427	–	0.148
433.62 K, 10000 kPa, x2 = 0.5427	–	0.158
435.62 K, 5000 kPa, x2 = 0.7906	–	0.138
435.62 K, 10000 kPa, x2 = 0.7906	–	0.149
447.3 K, 4808 kPa, x2 = 0.5427	566	–
447.3 K, 6304 kPa, x2 = 0.5427	569.6	–
447.3 K, 9463 kPa, x2 = 0.5427	576.6	–
451.28 K, 3900 kPa, x2 = 0.2808	565.6	–
451.28 K, 5302 kPa, x2 = 0.2808	569	–
451.28 K, 8131 kPa, x2 = 0.2808	576	–
451.28 K, 9621 kPa, x2 = 0.2808	579.7	–
452.73 K, 5000 kPa, x2 = 0.5427	–	0.129
452.73 K, 10000 kPa, x2 = 0.5427	–	0.14
455.3 K, 5000 kPa, x2 = 0.7906	–	0.12
455.3 K, 10000 kPa, x2 = 0.7906	–	0.132
455.63 K, 5000 kPa, x2 = 0.2808	–	0.133
455.63 K, 10000 kPa, x2 = 0.2808	–	0.145
463.18 K, 5000 kPa, x2 = 0.5427	–	0.12
463.18 K, 10000 kPa, x2 = 0.5427	–	0.131
466.55 K, 4570 kPa, x2 = 0.7906	535.1	–
466.55 K, 7593 kPa, x2 = 0.7906	546.3	–
466.55 K, 9885 kPa, x2 = 0.7906	553.4	–
466.78 K, 3177 kPa, x2 = 0.5427	538.3	–
466.78 K, 8649 kPa, x2 = 0.5427	556.8	–
466.78 K, 9963 kPa, x2 = 0.5427	560.6	–
472.52 K, 5000 kPa, x2 = 0.7906	–	0.107
472.52 K, 10000 kPa, x2 = 0.7906	–	0.118
473.1 K, 5000 kPa, x2 = 0.5427	–	0.112
473.1 K, 10000 kPa, x2 = 0.5427	–	0.123
473.46 K, 5000 kPa, x2 = 0.2808	–	0.118
473.46 K, 10000 kPa, x2 = 0.2808	–	0.13
475.85 K, 4354 kPa, x2 = 0.2808	539.5	–
475.85 K, 8492 kPa, x2 = 0.2808	553.8	–
475.85 K, 10120 kPa, x2 = 0.2808	558.1	–
483.92 K, 4703 kPa, x2 = 0.5427	524.2	–
483.92 K, 7131 kPa, x2 = 0.5427	533.5	–
483.92 K, 9423 kPa, x2 = 0.5427	541.6	–
494.74 K, 4250 kPa, x2 = 0.2808	515.8	–
494.74 K, 6032 kPa, x2 = 0.2808	524.3	–
494.74 K, 8734 kPa, x2 = 0.2808	535.5	–
494.74 K, 9220 kPa, x2 = 0.2808	537.5	–
505.34 K, 5217 kPa, x2 = 0.2808	507.7	–
505.34 K, 8904 kPa, x2 = 0.2808	525.4	–
505.34 K, 9807 kPa, x2 = 0.2808	528.4	–
506 K, 5099 kPa, x2 = 0.7906	487.7	–
506 K, 6982 kPa, x2 = 0.7906	499.4	–
506 K, 8492 kPa, x2 = 0.7906	507.2	–
506 K, 9669 kPa, x2 = 0.7906	512.6	–
518.04 K, 4982 kPa, x2 = 0.5427	480.1	–
518.04 K, 7512 kPa, x2 = 0.5427	496.2	–
518.04 K, 8983 kPa, x2 = 0.5427	504.3	–
525.5 K, 4771 kPa, x2 = 0.2808	475.8	–
525.5 K, 5323 kPa, x2 = 0.2808	480.4	–
525.5 K, 7331 kPa, x2 = 0.2808	494.9	–
525.5 K, 9533 kPa, x2 = 0.2808	506.5	–
536.57 K, 5021 kPa, x2 = 0.5427	449.5	–
536.57 K, 6931 kPa, x2 = 0.5427	468.1	–
536.57 K, 9621 kPa, x2 = 0.5427	486.1	–
549.34 K, 5394 kPa, x2 = 0.5427	431.7	–
549.34 K, 6766 kPa, x2 = 0.5427	449.2	–
549.34 K, 8689 kPa, x2 = 0.5427	464.6	–
549.34 K, 9708 kPa, x2 = 0.5427	471.9	–
555.9 K, 4982 kPa, x2 = 0.7906	394.1	–
555.9 K, 6198 kPa, x2 = 0.7906	416.1	–
555.9 K, 8649 kPa, x2 = 0.7906	445.5	–
555.9 K, 10240 kPa, x2 = 0.7906	458.1	–
557.23 K, 5296 kPa, x2 = 0.2808	430.4	–
557.23 K, 8238 kPa, x2 = 0.2808	461.5	–
557.23 K, 9885 kPa, x2 = 0.2808	473.3	–
557.23 K, 10790 kPa, x2 = 0.2808	479	–
